Earlier results in PMC13468302, “African Polyherbal Formulations for Type 2 Diabetes: A Systematic Review and Meta-Analysis of Efficacy, Mechanisms, and Therapeutic Potential” (Plants, 2026).

Experiments:
[1] = test system: HFD + STZ (45 mg/kg)-induced diabetic Sprague Dawley rats; details: UL 100 mg/kg, metformin 50 mg/kg, UL+Met 100/50 mg/kg, insulin 2U; 28 days; ref [44]
[2] = test system: alloxan-induced diabetic Wistar rats; details: 300 mg/kg each orally, 21 days; ref [53]
[3] = test system: alloxan-induced diabetic Wistar rats; details: combination at 400 mg/kg; 21 days; ref [49]

Molecule	fasting glucose change [1] [%]	glucose reduction [2] [%]	serum glucose reduction [3] [%]
CN(C)C(=N)N=C(N)N [metformin]	−15.34		
insulin	−35.65	69.1	
COc1ccc(Cl)cc1C(=O)NCCc1ccc(S(=O)(=O)NC(=O)NC2CCCCC2)cc1 [glibenclamide]			56.5
